ChEMBL document CHEMBL3751761, “Analogues of boswellic acids as inhibitors of pro-inflammatory cytokines TNF-α and IL-6” (Bioorg Med Chem Lett, 2016)

Assays:
[1] = test system: PBMC; assay: Anti-inflammatory activity in human PBMC assessed as inhibition of LPS-induced IL-6 expression at 10 uM after 5 hrs; assay type: functional
[2] = test system: PBMC; assay: Anti-inflammatory activity in human PBMC assessed as inhibition of LPS-induced TNFalpha expression at 10 uM after 5 hrs; assay type: functional
[3] = test system: Mus musculus; assay: Anti-inflammatory activity in BALB/c mouse assessed as inhibition of LPS-induced IL-6 expression at 10 mg/kg, po pre-treated for 1 hr followed by LPS administration measured 2.5 hrs after LPS challenge by ELISA; assay type: functional
[4] = test system: Mus musculus; assay: Anti-inflammatory activity in BALB/c mouse assessed as inhibition of LPS-induced TNFalpha expression at 10 mg/kg, po pre-treated for 1 hr followed by LPS administration measured 2.5 hrs after LPS challenge by ELISA; assay type: functional
[5] = Cytotoxicity against human FR2 cells assessed as cell viability at 10 uM after 48 hrs by MTT assay; assay type: cell-based; conditions: read-out: Activity

Compound | inhibition at 10 µM [1] | inhibition at 10 µM [2] | inhibition in vivo at 10 mg/kg [3] | inhibition in vivo at 10 mg/kg [4] | viability at 48 h, 10 µM [5]
CCC(=O)O[C@@H]1CC[C@@]2(C)[C@@H](CC[C@]3(C)[C@@H]2CC=C2[C@@H]4[C@@H](C)[C@H](C)CC[C@]4(C)CC[C@]23C)[C@@]1(C)C(=O)O | 43.5% | 40% | – | – | –
CCCC(=O)O[C@@H]1CC[C@@]2(C)[C@@H](CC[C@]3(C)[C@@H]2CC=C2[C@@H]4[C@@H](C)[C@H](C)CC[C@]4(C)CC[C@]23C)[C@@]1(C)C(=O)O | 34.8% | 41.4% | – | – | –
CCC(=O)O[C@@H]1CC[C@@]2(C)[C@@H](CC[C@]3(C)[C@@H]2C(=O)C=C2[C@@H]4[C@@H](C)[C@H](C)CC[C@]4(C)CC[C@]23C)[C@@]1(C)C(=O)O | 36.6% | 38.9% | – | – | –
CCCC(=O)O[C@@H]1CC[C@@]2(C)[C@@H](CC[C@]3(C)[C@@H]2C(=O)C=C2[C@@H]4[C@@H](C)[C@H](C)CC[C@]4(C)CC[C@]23C)[C@@]1(C)C(=O)O | 22.5% | 34.1% | – | – | –
CCCC(=O)O[C@H]1CC[C@@]2(C)[C@@H](CC[C@]3(C)[C@@H]2CC=C2[C@@H]4[C@@H](C)[C@H](C)CC[C@]4(C)CC[C@]23C)[C@@]1(C)C(=O)O | 39.5% | 68.9% | 51.6% | 58.7% | 83%
CCCC(=O)O[C@H]1CC[C@@]2(C)[C@@H](CC[C@]3(C)[C@@H]2C(=O)C=C2[C@@H]4[C@@H](C)[C@H](C)CC[C@]4(C)CC[C@]23C)[C@@]1(C)C(=O)O | 52.3% | 44.2% | 48.5% | 37.8% | 80%
C[C@H]1[C@H](C)CC[C@]2(C)CC[C@]3(C)C(=CC(=O)[C@@H]4[C@@]5(C)CC[C@H](O)[C@](C)(C(=O)O)[C@@H]5CC[C@]43C)[C@H]12 | 49.6% | 53.5% | 28.9% | 71.3% | 100%
CC(=O)O[C@H]1CC[C@@]2(C)[C@@H](CC[C@]3(C)[C@@H]2CC=C2[C@@H]4[C@@H](C)[C@H](C)CC[C@]4(C)CC[C@]23C)[C@@]1(C)C(=O)O | 51.1% | 57.9% | 19.5% | – | 99%
CC(=O)O[C@H]1CC[C@@]2(C)[C@@H](CC[C@]3(C)[C@@H]2C(=O)C=C2[C@@H]4[C@@H](C)[C@H](C)CC[C@]4(C)CC[C@]23C)[C@@]1(C)C(=O)O | 44.7% | 39.6% | – | – | –
CC(=O)O[C@@H]1CC[C@@]2(C)[C@@H](CC[C@]3(C)[C@@H]2CC=C2[C@@H]4[C@@H](C)[C@H](C)CC[C@]4(C)CC[C@]23C)[C@@]1(C)C(=O)O | – | 43.8% | – | – | –
CC(=O)O[C@@H]1CC[C@@]2(C)[C@@H](CC[C@]3(C)[C@@H]2CC=C2[C@@H]4[C@@H](C)[C@H](C)CC[C@]4(C)CC[C@]23C)[C@@]1(C)N=C=O | – | 40.6% | – | – | –
CC(=O)O[C@@H]1CC[C@]2(C)[C@H]3CC=C4[C@@H]5[C@@H](C)[C@H](C)CC[C@]5(C)CC[C@@]4(C)[C@]3(C)CC[C@H]2[C@@]1(C)N | 63.3% | 68.3% | 41.4% | 39.5% | 100%
CC(=O)O[C@@H]1CC[C@]2(C)[C@H]3C(=O)C=C4[C@@H]5[C@@H](C)[C@H](C)CC[C@]5(C)CC[C@@]4(C)[C@]3(C)CC[C@H]2[C@@]1(C)N | 58.4% | 78.9% | 39.1% | 53.3% | 97%
CCCCCC(=O)O[C@H]1CC[C@@]2(C)[C@@H](CC[C@]3(C)[C@@H]2C(=O)C=C2[C@@H]4[C@@H](C)[C@H](C)CC[C@]4(C)CC[C@]23C)[C@@]1(C)C(=O)O | 64% | 44.7% | 44.1% | 30.7% | 85%
CCCCCC(=O)O[C@H]1CC[C@@]2(C)[C@@H](CC[C@]3(C)[C@@H]2CC=C2[C@@H]4[C@@H](C)[C@H](C)CC[C@]4(C)CC[C@]23C)[C@@]1(C)C(=O)O | 53.4% | 42.5% | 41.6% | 59.3% | 97%
CCCCCC(=O)O[C@@H]1CC[C@@]2(C)[C@@H](CC[C@]3(C)[C@@H]2CC=C2[C@@H]4[C@@H](C)[C@H](C)CC[C@]4(C)CC[C@]23C)[C@@]1(C)C(=O)O | 50.5% | 72.3% | 57.5% | 42.5% | 89%
CCCCCC(=O)O[C@@H]1CC[C@@]2(C)[C@@H](CC[C@]3(C)[C@@H]2C(=O)C=C2[C@@H]4[C@@H](C)[C@H](C)CC[C@]4(C)CC[C@]23C)[C@@]1(C)C(=O)O | 13.8% | 18.3% | – | – | –
C[C@H]1[C@H](C)CC[C@]2(C)CC[C@]3(C)C(=CC[C@@H]4[C@@]5(C)CC[C@H](O)[C@](C)(C(=O)O)[C@@H]5CC[C@]43C)[C@H]12 | 42.3% | 41.4% | – | – | –
CC(=O)O[C@@H]1CC[C@@]2(C)[C@@H](CC[C@]3(C)[C@@H]2C(=O)C=C2[C@@H]4[C@@H](C)[C@H](C)CC[C@]4(C)CC[C@]23C)[C@@]1(C)N=C=O | 69.8% | 40.6% | 40.2% | 26.4% | 91%
C[C@H]1[C@H](C)CC[C@]2(C)CC[C@]3(C)C(=CC(=O)[C@@H]4[C@@]5(C)CC[C@@H](O)[C@](C)(C(=O)O)[C@@H]5CC[C@]43C)[C@H]12 [11-KETO BOSWELLIC ACID] | 59.6% | 56.3% | 61.6% | 58.7% | 86%
CC(=O)O[C@@H]1CC[C@@]2(C)[C@@H](CC[C@]3(C)[C@@H]2C(=O)C=C2[C@@H]4[C@@H](C)[C@H](C)CC[C@]4(C)CC[C@]23C)[C@@]1(C)C(=O)O [AKBA] | 53.9% | 55% | 54.3% | 70.7% | 100%
C[C@H]1[C@H](C)CC[C@]2(C)CC[C@]3(C)C(=CC[C@@H]4[C@@]5(C)CC[C@@H](O)[C@](C)(C(=O)O)[C@@H]5CC[C@]43C)[C@H]12 [BOSWELLIC ACID] | 48.6% | 44.5% | 53% | 50.8% | 73%
COc1ccc(C2CNC(=O)C2)cc1OC1CCCC1 (centres undefined) [ROLIPRAM] | 26.2% | 34.6% | 36.9% | 48.1% | –
